Experimental data from patent US20130089568A1, “HAIR GROWTH STIMULATOR BASED ON ECKLONIA CAVA EXTRACT, PREPARATION METHOD THEREOF, AND COSMETIC COMPOSITION CONTAINING THE SAME” (priority 2011, published 2013).

Key:
Type in all cases: cell-based
hair-related cells = assay: Test of isolated active substances using hair-related cells in an in vitro system
Description: The 7′-fluoroeckol compound is disclosed in Korean Patent Application No. 10-2011-0000141. The present invention aims to find a dioxinodehydroeckol compound and an Ecklonia cava extract using an extraction method capable of improving hair growth effects.

[1] = test system: human follicle dermal papilla cells; assay: Cell viability of human follicle dermal papilla cells (MTT assay)
Experimental: The cell viability of human follicle dermal papilla cells were measured using a 3-(4,5-dimethylthiazole-2-yl)-2,5-diphenyl-tetrazolium bromide [MTT] assay.
Specifically, 100 μL of cells were dispensed into each well of 96-well plates at a concentration of 1×10^6 cells/ml and cultured for 24 hours. A sample was prepared in a medium free of FBS and 1% penicillin/streptomycin at various concentrations, and the cells was treated with the sample and incubated for 24 hours. The cells were treated with an MTT solution (5 mg/mL) for 3 hours, and then the MTT was reduced and the medium was carefully removed such that the produced formazan was not removed. Then, 100 μL of dimethyl sulfoxide (DMSO) was dispensed into each well, and after 30 minutes, the absorbance at 570 nm was measured.

[2] = test system: human follicle dermal papilla cells; assay: Protein expression test (Western blotting) in human follicle dermal papilla cells; details: 0.1 μM, 24 hours
Experimental: (§1) Human follicle dermal papilla cells were purchased from Promo Cell (Heidelberg, Germany). The cells were cultured in a ready-to-use HFDPC medium composed of a basal medium, FCS (fetal calf serum) and a supplement kit Promo Cell (Heidelberg, Germany) containing basal FGF and insulin. For subculture, a kit containing HBSS (HEPES buffered saline), trypsin/EDTA solution and neutralizing solution (Promo Cell, Heidelberg, Germany) was used. Human follicle dermal papilla cells at passages 4 to 6 were used in the test and cultured in a T-25 flask containing 5 ml of medium under the conditions of 37° C. and 5% CO2.
In order to examine the mechanisms of action of the purified extract of Ecklonia cava and the dioxinodehydroeckol compound on the proliferation of human follicle dermal papilla cells, Western blotting was carried out according to standard protocol.
Specifically, the cells were seeded into a 6-well medium together with a serum-free medium and cultured for 24 hours (1.0×10^6 cells/well). Then, the medium was replaced with a fresh medium, and the cells were treated with various concentrations of a sample for 1-24 hours. […] The cells were cultured with horseradish-peroxidase-conjugated secondary antibody at room temperature, and then immune-reactive protein was detected using an enhanced chemiluminescence (ECL) analysis kit according to the manufacturer's instruction. […]

[3] = test system: human follicle dermal papilla cells; assay: mRNA expression (RT-PCR) in human follicle dermal papilla cells; details: 0.1 μM, 24 hours
Experimental: as §1
In order to examine the mechanisms of action of the purified extract of Ecklonia cava and the dioxinodehydroeckol compound on the proliferation of human follicle dermal papilla cells, reverse transcription polymerase chain reaction (RT-PCR) was performed according to a standard protocol. Specifically, the cells were seeded into a 6-well plate together with a serum-free medium and cultured for 24 hours (1.0×10^6 cells/well). Then, the medium was replaced with a fresh medium, and the cells were treated with various concentrations of a test material for 24 hours and then lysed with TRIzol® (Invitrogen).

human hair tissue = assay: Evaluation of hair growth by culture of human hair tissue; details: 0.1 μM
Experimental: Human hair tissue provided from Immunobiology Laboratory, Kyungpook National University, was used in the test and cultured in a CO2 incubator at 37° C. with Williams E media (Sigma, USA) containing 2 mM L-glutamin, 100 U/ml streptomycin and 10 ng/ml hydrocortisone. The tissue was cultured with various concentrations of the test material for 6 days, and the length of the hair tissue was measured at days 3 and 6.

| Molecule | influence on hair-related cells (hair-related cells) | cell viability ([1]; 1 μM, listed as minoidil) | viability at 1 µM ([1]; Homo sapiens, 1 μM) | viability at 0.1 µM ([1]; Homo sapiens, 0.1 μM, read-out: highest cell viability) | viability of the human follicle dermal papilla cells compared to untreated control ([1]; concentration range of 0.001-5 μM, FIG. 1c) | expression level of BMP2/4 protein, increase compared to untreated control [2] | expression level of β-catenin protein, increase compared to untreated control [2] | expression level of ALP mRNA, increase [3] | expression level of VCAN mRNA, increase [3] | expression level of VEGF mRNA, increase [3] | increased hair length (human hair tissue; day 3) | increased hair length (human hair tissue; day 6) |
| --- | --- | --- | --- | --- | --- | --- | --- | --- | --- | --- | --- | --- |
| 7′-fluoroeckol [7′-fluoroeckol compound] | specifically influence hair-related cells |  |  |  |  |  |  |  |  |  |  |  |
| Nc1cc(N2CCCCC2)nc(N)[n+]1[O-] [Minoxidil, reference compound] |  | 121% | 119% |  |  |  |  |  |  |  |  |  |
| Oc1cc(O)c2oc3cc(O)c4oc5cc(O)cc(O)c5oc4c3oc2c1 [dioxinodehydroeckol] | specifically influence hair-related cells |  |  | 142% | significantly increased | 1.8 times | 2.0 times | 1.5 times | 1.8 times | 1.3 times | 0.84 mm | 1.43 mm |
